Values joined by “and” are separate entries in the source; they are usually repeats but may differ in a detail not shown here. Equal values may be shown once.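 Following 48 hours of exposure in 96-well plates, responses at five concentrations were used to interpolate endpoints linearly. GI50 = concentration required for 50% inhibition of growth. At the TGI there is no net growth.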
What was measured:
Experiment in all cases: NCI tumour cell line growth inhibition, 48 h
BT-549 breast = tested on: BT-549 breast
DU-145 prostate = tested on: DU-145 prostate
M14 melanoma = tested on: M14 melanoma
MDA-MB-231 breast = tested on: MDA-MB-231 breast
MDA-N = tested on: MDA-N
PC-3 prostate = tested on: PC-3 prostate
T-47D breast = tested on: T-47D breast
DLD-1 colon = tested on: DLD-1 colon
KM20L2 colon = tested on: KM20L2 colon
P388/ADR leukemia = tested on: P388/ADR leukemia
XF 498 CNS = tested on: XF 498 CNS
SR leukemia = tested on: SR leukemia

`CS(=O)(=O)c1ccc(/C=N/NC(N)=S)cc1` gave a TGI (BT-549 breast) of over 100 µM, a TGI (DU-145 prostate) of over 100 µM and a TGI (M14 melanoma) of over 100 µM. For the same compound, the TGI (MDA-MB-231 breast) was over 100 µM, the TGI (MDA-N) was over 100 µM and the TGI (PC-3 prostate) was over 100 µM. For the same compound, the TGI (T-47D breast) was over 100 µM.

In the case of `CC1(C)CC23C4COC(=O)C2CCC1C3CC4=O` (stereo unspecified), the TGI (DLD-1 colon) is reported as 42.6 µM, the TGI (KM20L2 colon) is reported as 54.6 µM and the TGI (P388/ADR leukemia) is reported as 84.5 µM. For the same compound, the TGI (XF 498 CNS) was 27.2 µM.

With `CC[C@]1(O)C[C@H]2CN(CCc3c([nH]c4ccccc34)[C@@](C(=O)OC)(c3cc4c(cc3OC)N(C=O)[C@H]3[C@@](O)(C(=O)OC)[C@H](OC(C)=O)[C@]5(CC)C=CCN6CC[C@]43[C@@H]65)C2)C1` the TGI (DLD-1 colon) was 144 µM, the TGI (KM20L2 colon) was 0.206 µM and the GI50 (MDA-MB-231 breast) was 0.00138 µM. For the same compound, the GI50 (MDA-N) was under 0.001 µM, the TGI (P388/ADR leukemia) was 35.5 µM and the GI50 (SR leukemia) was 0.00657 µM. For the same compound, the GI50 (T-47D breast) was 112 µM, the TGI (T-47D breast) was 399 µM and 171 µM and the TGI (XF 498 CNS) was 2.5 µM.

Compound `CCOc1ccc2nc(-c3ccc(O)cc3)sc2c1` has a TGI (BT-549 breast) of over 100 µM, a TGI (DU-145 prostate) of over 100 µM and a TGI (M14 melanoma) of over 100 µM. The TGI (MDA-MB-231 breast) was over 100 µM, the TGI (MDA-N) was over 100 µM and the TGI (PC-3 prostate) was over 100 µM.

`C/C=C/[C@H]1O[C@@](O)([C@@H](C)[C@H](O)[C@H](C)[C@H]2OC(=O)/C(OC)=C/C(C)=C/[C@@H](C)[C@@H](O)[C@@H](CC)[C@@H](O)[C@H](C)C/C(C)=C/C=C/[C@@H]2OC)C[C@H](OC2CC(O)C(O)C(C)O2)[C@@H]1C` (stereo partly specified) gave a TGI (BT-549 breast) of 14.1 µM, a TGI (DU-145 prostate) of 15.1 µM and a TGI (M14 melanoma) of under 0.0075 µM. It also gave a TGI (MDA-MB-231 breast) of 13.9 µM, a TGI (MDA-N) of 12.2 µM and a TGI (PC-3 prostate) of 9.48 µM. It also gave a TGI (SR leukemia) of 0.75 µM and a TGI (T-47D breast) of 0.336 µM.

`CCOC(=O)NC(Nc1ncccn1)(C(F)(F)F)C(F)(F)F` showed a TGI (BT-549 breast) of over 100 µM, a TGI (DU-145 prostate) of over 100 µM and a TGI (M14 melanoma) of over 100 µM. It also gave a TGI (MDA-MB-231 breast) of over 100 µM, a TGI (MDA-N) of over 100 µM and a TGI (SR leukemia) of over 100 µM. For the same compound, the TGI (T-47D breast) was over 100 µM.

`O=C(O)c1ccccc1NC(c1ccccc1)c1ccc2cccnc2c1O` (stereo unspecified) showed a TGI (BT-549 breast) of 45.1 µM, a TGI (DU-145 prostate) of over 100 µM and a TGI (M14 melanoma) of 38.8 µM. For the same compound, the TGI (MDA-MB-231 breast) was over 62.4 µM, the TGI (MDA-N) was over 100 µM and the TGI (PC-3 prostate) was over 88.8 µM. It also gave a TGI (SR leukemia) of over 46.8 µM and a TGI (T-47D breast) of 39.4 µM.

In the case of `N/C(=N\N=C/c1ccccc1O)NO`, the TGI (DLD-1 colon) is reported as over 45.6 µM, the TGI (KM20L2 colon) is reported as over 100 µM and the TGI (P388/ADR leukemia) is reported as 10.8 µM. For the same compound, the TGI (XF 498 CNS) was 37.4 µM.

In the case of `O=C(Nc1cccc(-n2ccc3c(NC(=O)c4ccccc4)nccc32)c1)c1ccc(N2CCOCC2)c(C(F)(F)F)c1`, the GI50 (BT-549 breast) is reported as 0.183 µM, the TGI (BT-549 breast) is reported as over 67.7 µM and the GI50 (M14 melanoma) is reported as 0.0386 µM. The TGI (M14 melanoma) was over 100 µM, the GI50 (MDA-MB-231 breast) was 0.127 µM and the TGI (MDA-MB-231 breast) was 3.42 µM. For the same compound, the GI50 (PC-3 prostate) was 0.0538 µM, the TGI (PC-3 prostate) was over 100 µM and the GI50 (SR leukemia) was 0.045 µM. The TGI (SR leukemia) was over 100 µM.

`O=C(O)c1cc2ccccc2c(N=Nc2ccccc2)c1O` gave a TGI (BT-549 breast) of 45.1 µM, a TGI (DU-145 prostate) of 29.7 µM and a TGI (M14 melanoma) of 37.9 µM. The TGI (MDA-MB-231 breast) was over 100 µM, the TGI (MDA-N) was 58.4 µM and the TGI (PC-3 prostate) was 60.1 µM. It also gave a TGI (T-47D breast) of over 100 µM.

In the case of `O=[N+]([O-])c1nc(-c2ccccn2)[nH]c1[N+](=O)[O-]`, the TGI (DLD-1 colon) is reported as over 100 µM, the TGI (KM20L2 colon) is reported as over 100 µM and the TGI (M14 melanoma) is reported as over 100 µM. The TGI (SR leukemia) was over 100 µM and the TGI (XF 498 CNS) was over 100 µM.

`O=C1OC[C@@H]2[C@@H](O)CCCCCN12` showed a TGI (BT-549 breast) of over 100 µM, a TGI (DU-145 prostate) of over 100 µM and a TGI (MDA-MB-231 breast) of over 100 µM. The TGI (MDA-N) was over 100 µM, the TGI (PC-3 prostate) was over 100 µM and the TGI (SR leukemia) was over 100 µM. For the same compound, the TGI (T-47D breast) was over 100 µM.

`COc1cc2c(cc1OC)-c1cc3ccccc3c[n+]1CC2` showed a TGI (BT-549 breast) of over 100 µM, a TGI (DU-145 prostate) of over 100 µM and a TGI (M14 melanoma) of over 100 µM. It also gave a TGI (MDA-MB-231 breast) of over 100 µM, a TGI (MDA-N) of over 100 µM and a TGI (PC-3 prostate) of over 100 µM. For the same compound, the TGI (SR leukemia) was over 100 µM and the TGI (T-47D breast) was over 100 µM.

Compound `CCS(=O)(=O)N1CCC(C(C)n2c(C)c(C(=O)NCc3c(OC)cc(C)[nH]c3=O)c3ccccc32)CC1` (stereo unspecified) has a GI50 (DU-145 prostate) of over 100 µM, a TGI (DU-145 prostate) of over 100 µM and a GI50 (T-47D breast) of over 100 µM. The TGI (T-47D breast) was over 100 µM.

Work on `O=C1OC(c2ccccc2)=N/C1=C\c1cccnc1` yielded a TGI (BT-549 breast) of over 100 µM, a TGI (M14 melanoma) of over 100 µM and a TGI (PC-3 prostate) of over 100 µM. It also gave a TGI (SR leukemia) of over 100 µM.

Compound `C/C(CC/C(C)=N/O)=N\O` has a TGI (BT-549 breast) of over 100 µM, a TGI (DU-145 prostate) of over 100 µM and a TGI (M14 melanoma) of over 100 µM. The TGI (MDA-MB-231 breast) was over 100 µM, the TGI (MDA-N) was over 100 µM and the TGI (PC-3 prostate) was over 100 µM. For the same compound, the TGI (T-47D breast) was over 100 µM.

For `Fc1ccc2[nH]cc(-c3nc(-c4c[nH]c5ncccc45)cs3)c2c1`, the GI50 (SR leukemia) was 2.79 µM and the TGI (SR leukemia) was over 100 µM.

For `COC1=C2CC(C)CC(OC)C(O)C(C)/C=C(\C)C(OC(N)=O)C(OC)/C=C\C=C(/C)C(=O)NC(=C(C=NC(C)(C)C)C1=O)C2=O` (stereo unspecified), the TGI (DLD-1 colon) was 45.7 µM, the TGI (KM20L2 colon) was 14.6 µM and the TGI (P388/ADR leukemia) was 62.5 µM. It also gave a TGI (XF 498 CNS) of 3.09 µM.

Source: PubChem BioAssay (NCI)
